# Source: paper PMC10011554, “BET inhibitor trotabresib in heavily pretreated patients with solid tumors and diffuse large B-cell lymphomas” (Nature Communications, 2023)
# Assay: Adverse events, DLTs, MTD and RP2D in phase I study CC-90010-ST-001 (NCI CTCAE v4.03)
# Assay type: in vivo
# Experimental: The primary endpoints of the study were the safety and tolerability of trotabresib, as well as the MTD and/or RP2D of trotabresib. Safety was assessed using the National Cancer Institute Common Terminology Criteria for Adverse Events v4.03[53].
# The decision to evaluate additional subjects within a dose cohort, a higher dose cohort, intermediate dose cohorts, smaller dose increments, alternate dosing schedules, or declare an MTD will also be determined by the SRC, based on their review of clinical and laboratory safety […]
# 7.2.4. Definition of a Subject Evaluable for DLT
# After the first dose is administered in any cohort during dose escalation, subjects in each cohort […]
# more than one subject per day will be enrolled in a given dose escalation cohort.
# A subject evaluable for DLT is defined as one that: […]
# without experiencing a DLT,
# Subjects non-evaluable for DLT will be replaced. Additional subjects within any dose cohort may be enrolled at the discretion of the SRC. Intra-subject dose escalation will not be allowed during the DLT assessment period.
# 7.2.5. Definition of Maximum Tolerated Dose (MTD) […]
# of MTD is described in Section 7.2.2.
# A variable dose cohort (eg, less frequent dosing) may be evaluated to accurately determine the MTD at the discretion of the SRC.
# 7.2.6. Definition of Dose-Limiting Toxicity (DLT) […]
# used as a guide for the grading of severity of adverse events. A DLT is defined as any of the following toxicities occurring within the DLT assessment unless the event can clearly be […]
# Do se-limiting toxicities are described below:
# • Hyperglycemia meeting any of the following criteria:
# − Grade 3 or greater fasting hyperglycemia (> 250 mg/dL) lasting > 4 days despite optimal medical treatment
# (1 picture or pasted object on this page, not shown here)
# − Hyperglycemia associated with diabetic ketoacidosis or nonketotic hyperosmolar coma regardless of glucose level
# − Hyperglycemia that necessitates dose reduction despite dose interruption and resolution to ≤ grade 1 hyperglycemia within two weeks as described in […]
# • Any Grade 4 non-hematologic toxicity of any duration
# • Any non-hematologic toxicity Grade ≥ 3 EXCEPT for:
# − Grade 3 diarrhea, nausea, or vomiting of ≤ 3 days duration (with optimal medical […]
# − Grade 3 rash of the acneiform, pustular or maculopapular type which resolves to […]
# level with resumption of study drug at the same dose (with optimal medical […]
# − Grade 3 fatigue which resolves to Grade ≤ 2 within 7 days of study drug […]
# the same dose (with optimal medical management).
# • Hematological toxicities as follows:
# − Grade 4 neutropenia lasting > 7 days
# − Grade 4 thrombocytopenia lasting > 7 days, Grade ≥ 3 thrombocytopenia with clinically significant bleeding
# • Any AE, Grade ≥ 2 not specified or exempt above, unless clearly determined to be unrelated to the drug, necessitating dose-level reduction during Cycle 1.
# Isolated laboratory changes without associated clinical signs or symptoms (eg, hypomagnesemia, hypermagnesemia, hypoalbuminemia, hypophosphatemia, lymphocyte count increased or decreased) may not be included in this definition. These findings will be discussed and reviewed […]
# 7.2.7. Criteria for Dose Escalation in the Next Cohort of Subjects
# During Part A, the dose escalation criteria are described in Section 7.2.2.
# 7.2.8. Definition of Stopping Criteria
# During Part A, the dose escalation stopping rules are in Section 7.2.2.
# 7.2.9. Permitted Study Drug Adjustments
# Dose reductions are permitted in any cycle, including Cycle 1.
# • Dose reductions that occur in Cycle 1 during dose escalation will constitute DLT as […]
# [1] = part A (N = 69), 02 Dec 2019 cutoff
# [2] = part A (n=69), as stated in protocol section 7.2.10.1
# [3] = part A, 30 mg 3-days-on/11-days off, 02 Dec 2019 cutoff
# [4] = part A, 45 mg 4-days-on/24-days-off, 02 Dec 2019 cutoff
structure (smiles),measurement,setting,value
Cn1cc(-c2cc(S(C)(=O)=O)ccc2OCC2CC2)c2ccccc2c1=O [trotabresib],TEAE dysgeusia,[1],29.0%
same,TEAE fatigue,[1],24.6%
same,TEAE headache,[1],10.1%
same,TEAE hyperglycemia,[1],21.7%
same,TEAE increased ALT,[1],13.0%
same,TEAE maculopapular rash,[1],10.1%
same,TEAE nausea,[1],40.6%
same,TEAE stomatitis,[1],24.6%
same,TEAE thrombocytopenia,[1],50.7%
same,TEAE vomiting,[1],24.6%
same,serious TEAE anemia,[1],2.9%
same,serious TEAE arthralgia,[1],2.9%
same,serious TEAE cognitive disorder,[1],4.3%
same,serious TEAE decreased platelet count,[1],1.4%
same,serious TEAE diarrhea,[1],2.9%
same,serious TEAE fatigue,[1],2.9%
same,serious TEAE general physical health deterioration,[1],2.9%
same,serious TEAE headache,[1],4.3%
same,serious TEAE noncardiac chest pain,[1],2.9%
same,serious TEAE thrombocytopenia,[1],2.9%
same,subjects with a TEAE leading to death (all not related),[1],10.1%
same,subjects with at least one Grade 3 or 4 TEAE,[1],58.0%
same,subjects with at least one serious TEAE,[1],46.4%
same,subjects with at least one treatment-related Grade 3 or 4 TEAE,[1],33.3%
same,subjects with at least one treatment-related TEAE,[1],87.0%
same,subjects with at least one treatment-related serious TEAE,[1],11.6%
same,treatment-related Grade 3 or 4 TEAE anemia,[1],4.3%
same,treatment-related Grade 3 or 4 TEAE decreased platelet count,[1],2.9%
same,treatment-related Grade 3 or 4 TEAE fatigue,[1],2.9%
same,treatment-related Grade 3 or 4 TEAE hyponatremia,[1],2.9%
same,treatment-related Grade 3 or 4 TEAE increased ALT,[1],2.9%
same,treatment-related Grade 3 or 4 TEAE thrombocytopenia,[1],13.0%
same,treatment-related TEAE anemia,[1],11.6%
same,treatment-related TEAE asthenia,[1],31.9%
same,treatment-related TEAE decreased appetite,[1],17.4%
same,treatment-related TEAE dermatitis acneiform,[1],13.0%
same,treatment-related TEAE diarrhea,[1],39.1%
same,treatment-related TEAE dysgeusia,[1],26.1%
same,treatment-related TEAE fatigue,[1],21.7%
same,treatment-related TEAE hyperglycemia,[1],11.6%
same,treatment-related TEAE nausea,[1],39.1%
same,treatment-related TEAE stomatitis,[1],23.2%
same,treatment-related TEAE thrombocytopenia,[1],46.4%
same,treatment-related TEAE vomiting,[1],17.4%
same,treatment-related serious TEAE anemia,[1],2.9%
same,treatment-related serious TEAE decreased platelet count,[1],1.4%
same,treatment-related serious TEAE diarrhea,[1],2.9%
same,treatment-related serious TEAE fatigue,[1],2.9%
same,treatment-related serious TEAE thrombocytopenia,[1],2.9%
same,Grade 3 or 4 TEAE decreased platelet count,[2],4.3%
same,Grade 3 or 4 TEAE thrombocytopenia,[2],10.1%
same,TEAE decreased platelet count,[2],18.8%
same,subjects with at least one Grade 3 or 4 TEAE,[2],49.3%
same,subjects with at least one TEAE Grade 3 or 4 related to study drug,[3],33.3%
same,subjects with at least one TEAE related to study drug,[3],66.7%
same,subjects with at least one TEAE Grade 3 or 4 related to study drug,[4],28.6%
same,subjects with at least one TEAE related to study drug,[4],85.7%
same,TRAE: ALT increased,"part A, any grade",7.25%
same,TRAE: Anemia,"part A, any grade",11.59%
same,TRAE: Any TRAE,"part A, any grade",86.96%
same,TRAE: Asthenia,"part A, any grade",31.88%
same,TRAE: Decreased appetite,"part A, any grade",17.39%
same,TRAE: Dehydration,"part A, any grade",0%
same,TRAE: Dermatitis acneiform,"part A, any grade",13.04%
same,TRAE: Diarrhoea,"part A, any grade",39.13%
same,TRAE: Dysgeusia,"part A, any grade",26.09%
same,TRAE: Fatigue,"part A, any grade",21.74%
same,TRAE: Hyperglycemia,"part A, any grade",11.59%
same,TRAE: Hypertension,"part A, any grade",1.45%
same,TRAE: Hyponatremia,"part A, any grade",4.35%
same,TRAE: Hypophosphatemia,"part A, any grade",2.9%
same,TRAE: Nausea,"part A, any grade",39.13%
same,TRAE: Neutropenia,"part A, any grade",7.25%
same,TRAE: Platelet count decreased,"part A, any grade",4.35%
same,TRAE: Stomatitis,"part A, any grade",23.19%
same,TRAE: Thrombocytopenia,"part A, any grade",46.38%
same,TRAE: Vomiting,"part A, any grade",17.39%
same,TRAE: ALT increased,"part A, grade 3",1.45%
same,TRAE: Anemia,"part A, grade 3",4.35%
same,TRAE: Any TRAE,"part A, grade 3",26.09%
same,TRAE: Asthenia,"part A, grade 3",1.45%
same,TRAE: Decreased appetite,"part A, grade 3",0%
same,TRAE: Dehydration,"part A, grade 3",0%
same,TRAE: Dermatitis acneiform,"part A, grade 3",0%
same,TRAE: Diarrhoea,"part A, grade 3",1.45%
same,TRAE: Dysgeusia,"part A, grade 3",0%
same,TRAE: Fatigue,"part A, grade 3",2.9%
